{"source": "paper PMC6934184", "about": "“Selective DNA-PKcs inhibition extends the therapeutic index of localized radiotherapy and chemotherapy” (The Journal of Clinical Investigation, 2019)", "molecular_target": "T1, DCAMKL2 (DCK2) (Homo sapiens, UniProt Q8N568)", "T1 construct": "purchased Thermo Fisher Scientific (Life Technologies) SelectScreen", "T1 sequence (Q8N568 whole entry)": "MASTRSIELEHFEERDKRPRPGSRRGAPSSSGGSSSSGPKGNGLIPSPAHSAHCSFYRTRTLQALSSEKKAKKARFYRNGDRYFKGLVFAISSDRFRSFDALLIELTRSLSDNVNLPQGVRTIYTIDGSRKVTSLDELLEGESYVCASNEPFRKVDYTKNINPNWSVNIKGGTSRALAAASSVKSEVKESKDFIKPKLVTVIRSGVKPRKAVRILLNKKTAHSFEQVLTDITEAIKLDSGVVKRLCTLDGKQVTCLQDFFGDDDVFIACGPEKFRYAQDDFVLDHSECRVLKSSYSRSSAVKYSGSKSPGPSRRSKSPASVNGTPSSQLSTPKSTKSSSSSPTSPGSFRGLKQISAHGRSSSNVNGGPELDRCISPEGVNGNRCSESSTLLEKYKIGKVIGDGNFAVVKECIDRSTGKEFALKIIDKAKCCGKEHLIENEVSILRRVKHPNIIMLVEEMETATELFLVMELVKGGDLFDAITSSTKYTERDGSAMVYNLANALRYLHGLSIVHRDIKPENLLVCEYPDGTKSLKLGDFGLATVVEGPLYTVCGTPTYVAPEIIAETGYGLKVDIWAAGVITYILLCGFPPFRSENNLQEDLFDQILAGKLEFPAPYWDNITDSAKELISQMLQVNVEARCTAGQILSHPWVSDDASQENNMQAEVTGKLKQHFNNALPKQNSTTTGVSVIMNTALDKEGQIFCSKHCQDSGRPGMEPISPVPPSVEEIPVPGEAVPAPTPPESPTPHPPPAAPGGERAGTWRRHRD", "assay": "SelectScreen Z'LYTE", "assay_type": "biochemical", "method_in_brief": "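NU5455 was profiled across the SelectScreen Broad panel of kinase activity and binding assays. Z'LYTE reactions such as CSF1R ran at apparent Km ATP, while the Adapta CAMK1 assay used ATP listed as 10. Values are given as percent.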", "data": [{"smiles": "CN(C(=O)CN1CCOCC1)c1ccc2sc3c(-c4cccc5c(=O)cc(N6CC7CCC(C6)O7)oc45)cccc3c2c1", "note": "[NU5455]", "values": [{"measurement": "inhibition at 1 µM", "value": 1.5, "unit": "%"}]}]}
